Experimental data: patent US8138191B2, “Inhibitor compounds and cancer treatment methods” (Critical Outcome Technologies Inc., priority 2007, dated 2012)

What was measured:
SHP77 cells [1] = assay: Western blots of cellular lysates of SHP77 cells treated with COTI-2; assay type: cell-based, human; conditions: 250 nM
Experimental: To confirm this mechanism SHP77 cells were treated with 250 nM of COTI-2 and incubated for 3 and 6 hours. Phospho-Akt expression was decreased as compared to control at both 3 and 6 hours, with corresponding increases in Akt levels.

[2] = tested on: PI3K activity in DMS114 cells; assay: PI3-K activity (PIP3 detection, Echelon kit), DMS114; assay type: cell-based, human; conditions: DMS114, 250 nM COTI-2 alone, 20 minutes
Description: As a negative control, an equivalent volume of DMSO was utilized. […] To measure PI3-K activity, a commercial kit was purchased from Echelon. Following the procedures recommended by the manufacturer, membrane lipids were extracted in several steps and the resulting PIP3 was immobilized to nitrocellulose and measured by its interaction with a PH-domain containing protein and HRP-conjugated antibody supplied with the kit. As an additional control in these experiments, the specific PI3-K inhibitor, LY294002 was used to inhibit PI3-K and thus stop PIP3 production.

DMS114 and SHP77 cells = assay: Western blotting of AKT pSer473 and AKT phospho-protein targets; assay type: cell-based, human; conditions: for mTOR phospho-Ser 2448: 300 nM, time course
Experimental: Routine laboratory methods were employed for the production of cellular lysates, protein quantification, SDS-PAGE and western blotting. All antibodies were obtained from Cell Signaling and Abcam. To determine total AKT & AKT2 in DMS114 cells, 5×10^4 cells were incubated for 48 h with 10-100 ng of AKT2 siRNA or a scrambled control oligonucleotide. Cells were lysed and 50 μg of protein was separated by SDS-PAGE and blotted with antibody to total AKT or AKT2.
The phospho-AKT status at Ser473 was determined in the presence of COTI-2 utilizing western blotting. […] The inhibition of AKT phosphorylation at Ser473 correlates with the reduction in the phosphorylation of GSK-3α/β (pSer21/9), which is a downstream target of activated phospho-AKT. […] The complete time course of the AKT phospho-Ser473 status in DMS114 and SHP77 cells during incubation with COTI-2 is documented in FIG. 39.
A complex relationship exists between Raptor- and Rictor-containing mTor complexes mTORC1 and mTORC2, respectively, and AKT. mTORC2 activates AKT by Ser473 phosphorylation; in turn, activated AKT phosphorylates TSC2, which prevents its interaction with Rheb and thus the hydrolysis of GTP associated with Rheb. As a result, Rheb-GTP activates mTOR by phosphorylation on Ser2448. […] The results shown in FIGS. 40-45 agree with this hypothesis. […] Phosphorylation of the PTEN C terminal was reported to stabilize PTEN and protect against ubiquitin-mediated degradation (Nat Rev Cancer, 6: 184-192). One implication of this observation is that COTI-2 may activate PTEN and thus, by reducing the amount of PIP3, contribute to the inhibition of AKT activity.

in vivo = conditions: both, rat, in vivo
Description: Pharmacokinetic studies in animal models provide valuable information that enables prediction of metabolism in humans. There are a large variety of animal models that allow for the pharmacokinetic evaluation of compounds by providing information on serum, plasma, and tissue levels. […] As a result, it is important to keep this phenomenon in mind during extrapolations from animal to human metabolism. An initial pharmacokinetic assessment of COTI-2, administered both intravenously and orally, in its parent formulation and as both an oxalate and tartrate salt were evaluated in rats.
A single oral or IV dose of the COTI-2 free-base or the aforementioned salt forms was administered to groups of male and female rats and blood samples collected and processed at several time-points post-treatment.

CYP3A = CYP3A (Homo sapiens, UniProt P08684); assay: in vitro; conditions: both
Sequence of CYP3A (P08684 2-503): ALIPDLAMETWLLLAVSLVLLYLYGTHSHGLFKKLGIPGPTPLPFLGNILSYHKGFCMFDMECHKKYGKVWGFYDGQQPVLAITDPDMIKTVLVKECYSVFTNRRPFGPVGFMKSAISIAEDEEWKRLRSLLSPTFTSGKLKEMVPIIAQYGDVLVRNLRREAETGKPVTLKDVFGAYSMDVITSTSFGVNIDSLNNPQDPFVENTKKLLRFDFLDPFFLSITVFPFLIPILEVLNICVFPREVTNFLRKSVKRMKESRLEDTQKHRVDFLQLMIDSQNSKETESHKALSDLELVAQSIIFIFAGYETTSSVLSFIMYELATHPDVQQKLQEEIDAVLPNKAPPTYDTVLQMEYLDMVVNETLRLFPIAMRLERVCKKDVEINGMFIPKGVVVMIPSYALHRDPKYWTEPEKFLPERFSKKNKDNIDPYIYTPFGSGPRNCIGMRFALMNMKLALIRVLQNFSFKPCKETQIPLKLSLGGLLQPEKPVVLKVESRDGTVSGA

SHP77 cells [3] = assay: siRNA target knock-down with COTI-219, cell viability by trypan blue, SHP77; assay type: cell-based, human; conditions: SHP77, 500 nM, 48 h
Experimental: In brief, cells DMS114 and SHP77 cells were transfected with gene specific siRNA in the presence or absence of COTI-219 and cell viability determined after 24 to 48 h post-incubation using the trypan blue exclusion method.
Cell cultures were maintained under regular tissue culture conditions and passaged 1-2 times a week as recommended by ATCC. With the exception of the siRNA for Bim (Signal Silence Bim siRNA kit #6460 from Cell Signaling), all other siRNA reagents for gene knock-down experiments was obtained from Ambion (Silencer Negative Control #1 siRNA #AM4611, CDK2 Silencer Select #s204, HRAS Silencer Select #s807, Protein kinase C alpha Silencer Validated #301, MAPK3/Erk Silencer Pre-designed #214749, EGFR Silencer Select #s563, and ERBB2 Silencer Select #s611). […] The transfection method required optimization such that a knock-down of the target gene greater than ˜75% was achieved and confirmed by western blot analyses. […] Following an optimal knock-down level at >75%, 2×10^5 cells were incubated with 500 nM COTI-219 and number of viable cells was measured at 48 h.
Cell viability assays were performed 24 to 48 h following incubation with COTI-219 by the trypan blue exclusion method using a Beckman-Coulter Vi-CELL XR 2.03 automated cell counter. Routine laboratory methods were employed for the production of cellular lysates, protein quantitation, SDS-PAGE and western blotting. […]

Structure (SMILES)	Caspase 8 level of expression (SHP77 cells [1])	phospho-STAT3 expression (SHP77 cells [1])	Phospho-Akt expression (SHP77 cells [1]; 3 and 6 hours)	phospho-Caspase 9 (SHP77 cells [1]; 3 and 6 hrs)	decrease in total STAT3 (SHP77 cells [1]; 6 hrs)	increase in PI3K activity (PIP3 levels) [2]	phosphorylation of GSK-3α/β (pSer21/9) (DMS114 and SHP77 cells; 250 nM)	AKT Ser473 phosphorylation (DMS114 and SHP77 cells; 250 nM, 2 h)	PTEN phospho-Ser380 (DMS114 and SHP77 cells; DMS114 cells)	mTOR phospho-Ser 2448 (DMS114 and SHP77 cells; DMS114 cells)	mTOR phospho-Ser 2448 (DMS114 and SHP77 cells; SHP77 cells)	bioavailability (in vivo)	Tmax (in vivo; po)	clearance (CL) from plasma, fold higher than the oxalate and tartrate formulations (in vivo; po)	rate of absorption (Ka), fold higher than the other formulations (in vivo; po)	inhibition at 15 min, 10 µM (CYP3A; human liver microsomes, pH 7.4, probe testosterone (10 µM))	inhibition at 15 min, 10 µM (CYP3A; liver microsomes, pH 7.4, probe testosterone)	target knock-downs suppressing the apoptotic/cell growth inhibitory effect of COTI-219 (SHP77 cells [3])
S=C(N/N=C1/CCCc2cccnc21)N1CCN(c2ccccn2)CC1 [COTI-2]	remained constant	no change	decreased	profound suppression	~30%	approximately 25%	reduction	profound inhibition	strong but transient increase	initial decrease in phospho-Ser 2448 at 2 hrs followed by a more sustained decrease at 24 and 48 hrs	only the decrease at 2 hrs of incubation was observed	17.7%	4 h	approximately 2 fold	approximately 3 fold	-4%	< 50%	–
CN1CCN(C(=S)NN=C2c3ncccc3-c3cccnc32)CC1 [COTI-219]	–	–	–	–	–	–	–	–	–	–	–	–	–	–	–	–	–	not only Ras but Erbb2, Erk1, and PKC-α all suppressed
